Values quoted from earlier work as cited in patent US20130281394A1, “Chemosensory Receptor Ligand-Based Therapies” (ELCELYX THERAPEUTICS, INC., priority 2010, published 2013).
Where two headings read alike, the source gives them in different places.

Legend:
sweet receptor = molecular target: T1, sweet receptor (Homo sapiens, UniProt Q7RTX0+Q8TE23); details: relative sweetness on a weight comparison basis to sucrose (= 1.0); ranges: varied with the concentration of sucrose
T1 sequence (Q8TE23 20-839): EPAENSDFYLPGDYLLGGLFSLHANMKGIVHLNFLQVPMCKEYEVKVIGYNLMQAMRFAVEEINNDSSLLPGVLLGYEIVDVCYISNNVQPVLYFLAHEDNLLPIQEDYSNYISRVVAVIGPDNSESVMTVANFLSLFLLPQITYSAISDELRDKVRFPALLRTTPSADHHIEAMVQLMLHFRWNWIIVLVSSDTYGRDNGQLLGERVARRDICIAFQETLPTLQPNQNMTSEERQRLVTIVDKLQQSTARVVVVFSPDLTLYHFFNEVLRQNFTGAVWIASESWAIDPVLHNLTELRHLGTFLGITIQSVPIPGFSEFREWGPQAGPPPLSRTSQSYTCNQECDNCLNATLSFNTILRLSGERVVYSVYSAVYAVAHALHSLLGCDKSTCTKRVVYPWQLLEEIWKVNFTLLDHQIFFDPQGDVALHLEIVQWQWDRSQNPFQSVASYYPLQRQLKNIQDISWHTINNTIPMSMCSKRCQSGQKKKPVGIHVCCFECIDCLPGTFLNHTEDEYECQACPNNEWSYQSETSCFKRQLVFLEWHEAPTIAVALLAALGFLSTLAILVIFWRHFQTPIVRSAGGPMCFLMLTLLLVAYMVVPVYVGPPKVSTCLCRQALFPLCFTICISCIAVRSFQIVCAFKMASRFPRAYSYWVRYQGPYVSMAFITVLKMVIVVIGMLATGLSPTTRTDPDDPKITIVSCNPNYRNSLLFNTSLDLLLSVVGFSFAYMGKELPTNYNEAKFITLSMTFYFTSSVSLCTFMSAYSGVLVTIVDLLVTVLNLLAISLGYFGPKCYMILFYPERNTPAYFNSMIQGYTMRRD
T1 sequence (Q7RTX0 21-852): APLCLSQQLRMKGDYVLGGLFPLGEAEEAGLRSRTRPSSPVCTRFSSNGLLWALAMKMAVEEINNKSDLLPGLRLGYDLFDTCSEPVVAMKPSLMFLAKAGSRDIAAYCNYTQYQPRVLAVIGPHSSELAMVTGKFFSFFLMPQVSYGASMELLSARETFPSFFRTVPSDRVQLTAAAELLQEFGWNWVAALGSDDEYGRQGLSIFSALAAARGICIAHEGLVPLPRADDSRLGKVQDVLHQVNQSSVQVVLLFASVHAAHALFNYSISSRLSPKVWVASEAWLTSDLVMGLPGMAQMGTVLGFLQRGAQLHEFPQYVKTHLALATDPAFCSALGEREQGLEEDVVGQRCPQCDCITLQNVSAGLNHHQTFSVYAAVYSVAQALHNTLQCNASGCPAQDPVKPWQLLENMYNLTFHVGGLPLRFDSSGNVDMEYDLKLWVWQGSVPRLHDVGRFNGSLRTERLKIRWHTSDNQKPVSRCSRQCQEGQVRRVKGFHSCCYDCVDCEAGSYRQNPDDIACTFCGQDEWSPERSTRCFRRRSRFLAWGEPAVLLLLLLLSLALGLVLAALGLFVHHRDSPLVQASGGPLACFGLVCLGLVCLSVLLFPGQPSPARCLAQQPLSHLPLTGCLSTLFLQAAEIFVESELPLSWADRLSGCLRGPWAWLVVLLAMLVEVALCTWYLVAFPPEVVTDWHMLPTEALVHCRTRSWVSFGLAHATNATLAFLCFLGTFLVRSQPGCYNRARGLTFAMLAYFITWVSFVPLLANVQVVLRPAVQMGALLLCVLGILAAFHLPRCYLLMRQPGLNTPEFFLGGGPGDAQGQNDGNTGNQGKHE

gut hormones = details: humans
[1] = rats
GLP-1 [2] = details: humans
GLP-1 [3] = details: rats, with a DPP-IV inhibitor
gut hormone release [4] = details: instillation into the duodenum of humans
gut hormone release [5] = details: rats
[6] = patients with jejunostomy
[7] = in vivo

In the case of C[C@@H]1O[C@@H](O[C@H]2[C@H](Oc3cc(O)c4c(c3)O[C@H](c3ccc(O)cc3)CC4=O)O[C@H](CO)[C@@H](O)[C@@H]2O)[C@H](O)[C@H](O)[C@H]1O [Naringin], the Taste quality (bitter receptor) is listed as “Bitter”.
In the case of COc1ccc(-c2cc(=O)c3c(OC)c(OC)c(OC)c(OC)c3o2)cc1OC [Nobiletin], the Taste quality (bitter receptor) is given as “Bitter”.
In the case of CC(=O)O[C@H]1CC(=O)OC(C)(C)[C@@H]2CC(=O)[C@]3(C)[C@H](CC[C@@]4(C)[C@H](c5ccoc5)OC(=O)[C@H]5O[C@]543)[C@@]12C [Nomilin], the Taste quality (bitter receptor) is given as “Bitter”.
In the case of C=C[C@H](O)CC(=NOS(=O)(=O)O)S[C@@H]1O[C@H](CO)[C@@H](O)[C@H](O)[C@H]1O [Progoitrin], the Taste quality (bitter receptor) is given as “Bitter”.
For O=c1c(O)c(-c2ccc(O)c(O)c2)oc2cc(O)cc(O)c12 [Quercetin], the Taste quality (bitter receptor) is given as “Bitter”.
In the case of C=C1C[C@@]23CC[C@H]4[C@@](C)(CCC[C@@]4(C)C(=O)O[C@@H]4O[C@H](CO)[C@@H](O)[C@H](O)[C@H]4O)[C@@H]2CC[C@]1(O[C@@H]1O[C@H](CO)[C@@H](O)[C@H](O[C@@H]2O[C@H](CO)[C@@H](O)[C@H](O)[C@H]2O)[C@H]1O[C@@H]1O[C@H](CO)[C@@H](O)[C@H](O)[C@H]1O)C3 [Rebaudioside A], the Sweetness/potency (sweet receptor) is listed as 242 and the “alterations of gut hormones in the circulation” value (gut hormones) is listed as “no alterations”.
In the case of COc1ccc(-c2cc(=O)c3c(OC)c(OC)c(OC)cc3o2)cc1OC [Sinensetin], the Taste quality (bitter receptor) is given as “Bitter”.
In the case of COc1ccc(-c2cc(=O)c3c(OC)c(OC)c(OC)c(OC)c3o2)cc1 [Tangeretin], the Taste quality (bitter receptor) is given as “Bitter”.
In the case of O=c1c(-c2ccc(O)cc2)coc2cc(O)ccc12 [daidzein], the Taste quality (bitter receptor) is given as “Bitter or astringent”.
For N[C@@H](CCC(=O)O)C(=O)O [glutamate], the abdominal fat [1] is given as “reduced” and the weight gain [1] is given as “decreased”.
In the case of OCCN1C[C@H](O)[C@@H](O)[C@H](O)[C@H]1CO [miglitol], the “post-prandial GLP-1 levels” value (GLP-1 [2]) is given as “increase” and the “increase in GLP-1” value (GLP-1 [3]) is given as “synergistic”.
In the case of OC[C@H]1O[C@H](O[C@]2(CCl)O[C@H](CCl)[C@@H](O)[C@@H]2O)[C@H](O)[C@@H](O)[C@H]1Cl [sucralose], the gut hormone release (gut hormone release [4]) is listed as “no effect” and the gut hormone release (gut hormone release [5]) is listed as “no effect”.
In the case of “GLP-2: gut hormone administered to patients with jejunostomy (HADGSFSDEMNTILDNLAARDFINWLIQTKITD; Glucagon-like peptide 2; UniProt P01275 146-178, looked up)”, the “gastric emptying of solids and liquids” value [6] is listed as “prolong” and the “intestinal absorption of energy and intestinal wet weight absorption” value [6] is listed as “improve”.
For glucagon-like peptide-1 [GLP-1], the “portal:arterial gradient” value [7] is listed as > 2:1.
